In PubChem BioAssay (NCI):
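How tested: cells in 96-well plates exposed to compound for 48 hours at five concentrations. GI50 marks 50% less growth. At the TGI there is no net growth.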

How the values were obtained:
Assay in all cases: DTP human tumour cell line panel, 48 h
[1] = test system: OVCAR-3 ovarian
[2] = test system: NCI/ADR-RES ovarian
[3] = test system: HCT-116 colon
[4] = test system: NCI-H522 lung
[5] = test system: SF-268 CNS
[6] = test system: ACHN renal
[7] = test system: PC-3 prostate
[8] = test system: MCF7 breast
[9] = test system: TK-10 renal
[10] = test system: CAKI-1 renal

With `C#CCCCCCC(=O)N[C@H]1C=C[C@@H]2/C=C(C)/C=C/[C@@H](C)[C@H]([C@H](C)[C@H](O)[C@@H](C)NC(C)=O)OC(=O)/C=C/C=C(C)\C=C\[C@]2(C)C1` the GI50 [1] was 0.00889 µM, the TGI [1] was greater than 40 µM and the GI50 [2] was 0.0258 µM. It also gave a TGI [2] greater than 40 µM, a GI50 [3] of less than 0.004 µM and a TGI [3] greater than 40 µM. It also gave a GI50 [4] of 0.0091 µM, a TGI [4] of 14.2 µM and a GI50 [5] of 0.397 µM. The TGI [5] was greater than 40 µM, the GI50 [6] was less than 0.004 µM and the TGI [6] was greater than 40 µM. The GI50 [7] was less than 0.004 µM, the TGI [7] was greater than 40 µM and the GI50 [8] was less than 0.004 µM. The TGI [8] was greater than 40 µM, the GI50 [9] was 0.0158 µM and the TGI [9] was greater than 40 µM.

With `CC1(C)CC2=NO[Se]3=C2C(=NO3)C1` the TGI [1] was 5.37 µM, the TGI [10] was 11.4 µM and the TGI [3] was 10.4 µM. The TGI [4] was 5.46 µM, the TGI [5] was 56.3 µM and the TGI [6] was 3.61 µM. It also gave a TGI [7] of 3.24 µM, a TGI [8] of 14.2 µM and a TGI [9] of 19.5 µM.

With `CC(=O)O[C@H]([C@H](OC(C)=O)[C@H](C)OC(C)=O)[C@@H](/C=C/[C@H]1CC=CC(=O)O1)OC(C)=O` the GI50 [2] was greater than 100 µM, the TGI [2] was greater than 100 µM and the GI50 [10] was 79.7 µM. It also gave a TGI [10] greater than 100 µM, a GI50 [3] of 33 µM and a TGI [3] greater than 100 µM. For the same compound, the GI50 [4] was 15.6 µM, the TGI [4] was 36.2 µM and the GI50 [5] was 41.6 µM. The TGI [5] was greater than 100 µM, the GI50 [6] was greater than 100 µM and the TGI [6] was greater than 100 µM. For the same compound, the GI50 [7] was 17.6 µM, the TGI [7] was greater than 100 µM and the GI50 [8] was 39 µM. For the same compound, the TGI [8] was greater than 100 µM, the GI50 [9] was greater than 100 µM and the TGI [9] was greater than 100 µM.

In the case of `COc1ccc2cc3n(c(=O)c2c1)CCc1c-3cc(OC)c(OC)c1OC`, the TGI [1] is reported as greater than 100 µM, the TGI [10] is reported as greater than 100 µM and the TGI [3] is reported as greater than 100 µM. The TGI [4] was greater than 100 µM, the TGI [5] was greater than 100 µM and the TGI [6] was greater than 100 µM. The TGI [9] was greater than 100 µM.

Work on `CCCCC(C(=O)C(=O)Nc1ccccc1CC)C(=O)C(C)C` (stereo not drawn) yielded a TGI [1] greater than 100 µM, a TGI [10] greater than 100 µM and a TGI [3] greater than 100 µM. For the same compound, the TGI [4] was greater than 100 µM, the TGI [5] was greater than 100 µM and the TGI [6] was greater than 100 µM. For the same compound, the TGI [9] was greater than 100 µM.

`COc1cc2c(cc1C)NC(=O)/C2=C\c1ccc(Oc2ccccc2)cc1` was tested, and the GI50 [1] was 17.2 µM, the TGI [1] was 34.3 µM and the GI50 [2] was 17.4 µM. The TGI [2] was 36.5 µM, the GI50 [10] was 17 µM and the TGI [10] was 33 µM. The GI50 [3] was 5.85 µM, the TGI [3] was 17.7 µM and the GI50 [4] was 12.4 µM. For the same compound, the TGI [4] was 42 µM, the GI50 [6] was 15.6 µM and the TGI [6] was 29 µM. It also gave a GI50 [7] of 12.4 µM, a TGI [7] of 29.8 µM and a GI50 [9] of 16.8 µM. It also gave a TGI [9] of 32.9 µM.

Compound `O=C1c2ccccc2C2(O)N(c3ccccc3)C(=S)N(c3ccccc3)C12O` (stereo not drawn) has a TGI [1] greater than 100 µM, a TGI [10] greater than 100 µM and a TGI [3] greater than 100 µM. For the same compound, the TGI [4] was greater than 100 µM, the TGI [5] was greater than 100 µM and the TGI [6] was greater than 100 µM. It also gave a TGI [9] greater than 100 µM.

In the case of `O=C1c2ccccc2N1C(=O)c1ccccc1[N+](=O)[O-]`, the TGI [1] is reported as 88.4 µM, the TGI [10] is reported as greater than 100 µM and the TGI [3] is reported as greater than 100 µM. It also gave a TGI [4] greater than 100 µM, a TGI [5] greater than 100 µM and a TGI [6] greater than 100 µM. For the same compound, the TGI [7] was greater than 100 µM, the TGI [8] was greater than 100 µM and the TGI [9] was greater than 100 µM.

For `O=c1c2cc(Br)ccc2nc(CNc2ccccc2)n1-c1ccccc1`, the TGI [1] was 48.5 µM, the TGI [10] was 11.6 µM and the TGI [3] was 33.9 µM. It also gave a TGI [4] of 19.9 µM, a TGI [5] greater than 54.7 µM and a TGI [6] greater than 49.9 µM. The TGI [9] was 45.5 µM.
